These results are taken from publication PMC3940083 (International Journal for Parasitology: Drugs and Drug …, 2013).

Type in all cases: biochemical
For test [1], the target named is T1, PfAdoMetDC/ODC (S-adenosyl-L-methionine decarboxylase, AdoMetDC domain) (Plasmodium falciparum, UniProt Q8IJ77).
T1 sequence (Q8IJ77 1-72): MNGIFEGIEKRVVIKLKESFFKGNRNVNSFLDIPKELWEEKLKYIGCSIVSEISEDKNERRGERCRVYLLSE
T1 sequence (Q8IJ77 73-1434): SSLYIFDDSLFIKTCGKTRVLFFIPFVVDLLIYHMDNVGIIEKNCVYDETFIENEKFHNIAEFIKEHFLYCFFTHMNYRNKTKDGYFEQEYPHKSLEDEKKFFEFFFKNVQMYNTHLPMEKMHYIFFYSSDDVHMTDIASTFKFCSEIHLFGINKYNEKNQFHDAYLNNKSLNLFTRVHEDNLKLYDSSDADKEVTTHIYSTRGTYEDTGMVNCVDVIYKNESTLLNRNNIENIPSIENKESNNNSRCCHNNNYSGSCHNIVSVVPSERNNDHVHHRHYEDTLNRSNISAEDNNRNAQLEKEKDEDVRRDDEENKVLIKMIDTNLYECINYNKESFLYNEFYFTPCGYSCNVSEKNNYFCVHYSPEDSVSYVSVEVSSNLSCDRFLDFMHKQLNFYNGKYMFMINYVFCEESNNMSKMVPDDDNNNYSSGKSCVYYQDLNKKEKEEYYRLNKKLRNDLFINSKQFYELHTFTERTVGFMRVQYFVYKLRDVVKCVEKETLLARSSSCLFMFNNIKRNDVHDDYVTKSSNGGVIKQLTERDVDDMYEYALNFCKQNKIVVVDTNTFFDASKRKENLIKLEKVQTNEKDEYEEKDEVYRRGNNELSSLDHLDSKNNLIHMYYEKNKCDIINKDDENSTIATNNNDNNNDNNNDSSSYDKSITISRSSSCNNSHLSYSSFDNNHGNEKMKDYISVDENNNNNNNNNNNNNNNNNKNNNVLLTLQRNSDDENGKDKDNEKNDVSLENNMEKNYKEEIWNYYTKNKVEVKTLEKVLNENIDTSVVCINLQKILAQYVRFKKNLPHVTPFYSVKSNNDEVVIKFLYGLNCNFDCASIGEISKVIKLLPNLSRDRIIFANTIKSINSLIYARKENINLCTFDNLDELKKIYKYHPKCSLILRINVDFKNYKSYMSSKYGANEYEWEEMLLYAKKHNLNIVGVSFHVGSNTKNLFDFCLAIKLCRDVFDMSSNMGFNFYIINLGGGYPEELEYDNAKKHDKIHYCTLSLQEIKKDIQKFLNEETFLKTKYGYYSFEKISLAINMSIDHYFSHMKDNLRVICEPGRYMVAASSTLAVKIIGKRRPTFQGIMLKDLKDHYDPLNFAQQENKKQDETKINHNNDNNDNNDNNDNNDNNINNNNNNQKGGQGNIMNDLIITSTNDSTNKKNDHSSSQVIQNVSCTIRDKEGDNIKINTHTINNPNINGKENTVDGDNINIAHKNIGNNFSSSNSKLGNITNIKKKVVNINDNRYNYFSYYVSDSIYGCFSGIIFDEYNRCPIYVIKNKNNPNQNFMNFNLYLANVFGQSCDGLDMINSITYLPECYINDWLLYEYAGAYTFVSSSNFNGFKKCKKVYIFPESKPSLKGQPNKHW
As to conditions: read-out: Ki.

The target of test [2] is T2, PfAdoMetDC (S-adenosyl-L-methionine decarboxylase) (Plasmodium falciparum, UniProt Q8IJ77).
T2 sequence (Q8IJ77 1-72 limits assumed): T1 sequence (Q8IJ77 1-72)
T2 sequence (Q8IJ77 73-529 limits assumed): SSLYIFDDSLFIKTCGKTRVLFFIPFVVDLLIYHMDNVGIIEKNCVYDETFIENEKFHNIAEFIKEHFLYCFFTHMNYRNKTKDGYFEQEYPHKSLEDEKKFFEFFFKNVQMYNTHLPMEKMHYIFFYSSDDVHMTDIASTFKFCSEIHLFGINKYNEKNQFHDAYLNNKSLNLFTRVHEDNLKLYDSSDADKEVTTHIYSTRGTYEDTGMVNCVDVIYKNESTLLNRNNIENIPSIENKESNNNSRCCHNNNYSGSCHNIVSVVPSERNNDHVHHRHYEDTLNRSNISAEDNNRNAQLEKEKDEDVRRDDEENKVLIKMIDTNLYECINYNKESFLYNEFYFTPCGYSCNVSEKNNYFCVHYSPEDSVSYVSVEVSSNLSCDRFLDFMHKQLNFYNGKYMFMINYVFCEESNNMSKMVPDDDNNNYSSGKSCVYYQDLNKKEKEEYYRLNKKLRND
As to conditions: read-out: Ki.

In test [3] the target is T2, PfAdoMetDC (S-adenosyl-L-methionine decarboxylase). As to the kind of experiment: radiolabeled CO2 release assay, % inhibition at […]. As to conditions: read-out: % inhibition at 1 μM.

On to `Cc1nc2c(N)ncnc2n1[C@@H]1O[C@H](CN(C)C/C=C\CN)[C@@H](O)[C@H]1O` [Genz-644131, 8-methyl-5′-{[(Z)-4-aminobut-2-enyl]methylamino}-5′-deoxyadenosine], for which, in test [1], the KI (inactivation) came out at 180 ± 20 nM.

Take `CN(C/C=C\CN)C[C@H]1O[C@@H](n2cnc3c(N)ncnc32)[C@H](O)[C@@H]1O` [MDL73811, 5′-{[(Z)-4-amino-2-butenyl]methylamino}-5′-deoxyadenosine]: the KI (inactivation) in test [2] was 220 ± 90 nM.

One may read the inhibition as the drop in the measured response relative to a control, in per cent. On to `CN(C/C=C\CN)C[C@H]1O[C@@H](n2cnc3c(N)ncnc32)[C@@](O)(F)[C@@H]1O` [Genz-644043, 2′-fluoro-5′-{[(Z)-4-amino-2-butenyl]methylamino}-5′-deoxyadenosine], for which the inhibition at 1 µM in test [3] amounted to 57%.
